From a melting point compilation (Tetko et al.; mined from patent text by program, amines drawn as free bases though some values may be those of a salt) come the findings set out here.

For orientation: melting point means the temperature, or range, at which the solid turns liquid.

As to `CC(=O)NC1c2cc3nonc3cc2OC(C)(C)C1OC(C)=O` (stereo not drawn), the melting point was 236 to 238 °C.

With `CC(C)(C)OC(=O)N[C@H]1CCCCNC1=O`, the melting point was in the range of 147 to 149 °C.

On to `C=CC1C(=O)N(c2ccc(OC)cc2)C1C(=O)OCC` (stereo not drawn), for which the melting point lay within 70 to 72 °C.

Regarding `COc1cc2c(cc1OC)CC(NCC(=O)O)C2`, the melting point stood at 250 °C.

Compound `CN(C=C(C#N)C#N)c1ccc(Cl)cn1` came in with a melting point of 136 to 137 °C.

Regarding `CCC(=O)N(C)c1cccc(C(=O)C=CN(C)C)c1`, the melting point lay within 148 to 149 °C.

`CCCCC(=N)NC(=S)Nc1cccc(Cl)c1` returned a melting point of 142 to 145 °C.

The compound `COC(=O)C1Cc2cc3c(cc2C(c2ccc([N+](=O)[O-])cc2)=NN1)OCO3` (stereo not drawn) registered a melting point of 161 to 164 °C.

Turning to `CC(=O)NCC1CN(c2ccc(N3CCN(C4=NCCS4)CC3)c(F)c2)C(=O)O1` (stereo not drawn), the melting point was in the range of 219 to 223 °C.

Take `Cc1cc(-c2nnc3c4ccccc4c(OCc4ccncn4)nn23)no1`: the melting point lay in the range of 222 to 224 °C.

`NS(=O)(=O)c1cccc(-c2cc(-c3nc(-c4ccc(C(F)(F)F)nc4)cc(C(F)F)n3)ccn2)c1` yielded a melting point of 264 °C.

The compound `CCOC(=O)c1cn(CC)c2c(F)c(F)c(F)c(F)c2c1=O` showed a melting point of 217 to 220 °C.

Take `CC(C)(N=NC(C)(C)C(=O)NC1CCCCC1)C(=O)NC1CCCCC1`: the melting point amounted to 116 °C.

Compound `CCCCCCCCCCCc1nnc2n1-c1sc(CC)cc1C(c1ccc(O)cc1)=NC2` returned a melting point of 164 to 166 °C.

In turn, `CCOC(=O)Cc1nc2c(OCc3ccccc3)cccc2n1C` showed a melting point of 106 °C.

Take `Cc1nn(C)cc1C(=O)NC(C#N)c1ccsc1` (stereo not drawn): the melting point lay in the range of 113 to 114 °C.

The compound `CCCCCCCCN(C=O)C1CC(C)(C)N(C=CC(=O)OCC)C(C)(C)C1` displayed a melting point of 58 to 60 °C.

Compound `CCCSc1nc(NC2CC2c2ccccc2)c2nnn(C3CC(C(=O)NC)C(O)C3O)c2n1` (stereo not drawn) came in with a melting point of 165 to 166 °C.

`CC1C(=NO)CC2(O)C3Cc4ccc(O)c5c4C2(CCN3C)C1O5` (stereo not drawn) displayed a melting point of 115 to 116 °C.

On to `COc1cc(C=C(C#N)C(=O)Nc2cccc(Cl)c2)cc(Br)c1O`, for which the melting point is 217 to 219 °C.

`Cc1ccc(S(=O)(=O)Nc2cc(C(=O)O)c3c(c2)C(C(=O)O)CCN3)cc1` (stereo not drawn) returned a melting point of 221 to 223 °C.

The compound `Cc1cc(Sc2ccc(O)c(C)c2)ccc1O` came in with a melting point of 124 °C.

With `CCOCc1nc2c(N)nc3ccccc3c2n1CCOCCNC(=O)NC1CCCCC1`, the melting point fell in the range of 161 to 164 °C.

`OCc1cc(Cl)c(O)cc1F` had a melting point of 125 to 127 °C.

Regarding `Cc1ccc(CSC(=S)N2Cc3[nH]c4ccccc4c3CC2C(=O)O)cc1` (stereo not drawn), the melting point lay within 188 to 190 °C.

Regarding `CC(C)(C)OC(=O)CCC(N)(CCC(=O)OC(C)(C)C)CCC(=O)OC(C)(C)C`, the melting point was 84 to 86 °C.

Compound `CC(C)c1cc(C(=O)Nc2ccc(C(=O)O)c(F)c2)sc1C(C)C` registered a melting point of 133 to 135 °C.

Compound `CN1C(=O)N(c2ccc(C#N)c(C(F)(F)F)c2)C(=O)C1(C)C` returned a melting point of 158 °C.

`CCCN(CCC)C(=O)C(CCC(=O)N(C)C)NC(=O)C=Cc1ccco1` (stereo not drawn) displayed a melting point of 114 to 116 °C.

`c1cc(-c2ccnc3nc(N4CCNCC4)nn23)ccn1` returned a melting point of 147 to 149 °C.

Consider `COC(OC)/C(=C/c1ccc(Cl)cc1Cl)c1ccc(Cl)cc1`, for which the melting point is 87 to 90 °C.

The compound `CCn1cc(C(=O)O)c(=O)c2cc(Cl)c(N3CCCCC3)cc21` showed a melting point of 230 °C.

For the compound `O=C(O)C(=O)Nc1nccs1`, the melting point is 174 to 177 °C.

`Cc1c(-c2ccc(OCC(=O)O)cc2)oc(=O)c(Sc2ccccc2)c1O` displayed a melting point of 194 to 197 °C.

`CCCc1c(CSc2ncccc2O)ccc(C(C)=O)c1O`: the melting point was 126 °C.

For `COC(=O)Nc1cc(Oc2ccc3c(C(=O)Nc4ccc(CN5CCN(C)CC5)c(C(F)(F)F)c4)nccc3c2)ncn1`, the melting point fell in the range of 203 to 205 °C.

`N#CN=C(Nc1ccc(C#N)cc1O)Nc1cccc(Cl)c1Cl` returned a melting point of 155 to 156 °C.

Compound `O=C1Nc2ccccc2Oc2cscc21` came in with a melting point of 240 to 241 °C.

In turn, `CC(C)(C)OC(=O)NCc1ccsc1CC(=O)O` returned a melting point of 62 to 63 °C.

On to `COC(=O)c1ccc(Cc2cccc3ccc(C#N)cc23)c(OC)c1`, for which the melting point was in the range of 138 to 140 °C.

Turning to `COc1ccc([C@@H]2Sc3cc(Oc4ccc(F)cc4)ccc3NC(=O)[C@@H]2O)cc1F`, the melting point lay within 222 to 224 °C.

`CCOC(C)=NNc1ccc([N+](=O)[O-])cc1` showed a melting point of 102 °C.

The compound `CCOCC(=NO)C(C)(C)NCC(Cn1ccnc1[N+](=O)[O-])ONC(C)(C)C(CCn1ccnc1[N+](=O)[O-])=NO` (stereo not drawn) had a melting point of 105 to 107 °C.

Turning to `O=C1NC(C(=O)NCCO[N+](=O)[O-])C(c2cccc3ccccc23)S1` (stereo not drawn), the melting point lay within 151 to 153 °C.

As to `CCC1C(C)=NN=C(c2ccc(O)c(O)c2)c2cc(OC)c(O)cc21` (stereo not drawn), the melting point lay in the range of 254 to 255 °C.

For `COc1ccc(CSc2ccc([N+](=O)[O-])cc2CBr)cc1`, the melting point fell in the range of 98 to 99 °C.

Compound `CC(C)(C)OC(=O)NCC(Cl)c1cccs1` (stereo not drawn) came in with a melting point of 40 to 43 °C.

With `C[C@H]1N(S(C)(=O)=O)CO[C@@]1(Cn1cncn1)c1ccc(Cl)cc1Cl` (relative stereo), the melting point was in the range of 167 to 172 °C.

For `CC(C)C[C@H](NC(=O)CCSC(=O)c1ccccc1)C(=O)O`, the melting point lay in the range of 99 to 101 °C.

`COc1cc2c(Nc3ccc(Oc4cccnc4)cc3)c(C#N)cnc2cc1F` returned a melting point of 235 to 236 °C.

On to `CC(C)Oc1ccc(CO)c(Oc2ncc(C(F)(F)F)cc2Cl)c1`, for which the melting point lay within 63 to 64 °C.

`COc1ccc(C(O)c2ccccn2)cc1OC` (stereo not drawn) displayed a melting point of 92 to 94 °C.

In the case of `COC(C)(C)c1cc(C(C)(C)OC)cc(C(C)(C)OC)c1`, the melting point came out at 44 °C.

On to `CC(=C1SC(=O)NC1=O)c1ccc(OCCCOc2c(-c3ccc(F)cc3)n(C)c3ccccc3c2=O)c(Cl)c1`, for which the melting point was 232 to 234 °C.

`O=c1[nH]c2cc(Cl)cc(Cl)c2c(O)c1Sc1ccccc1Cl` returned a melting point of 285 to 288 °C.

`Oc1ncnc2[nH]c(-c3ccncc3)cc12` came in with a melting point greater than 260 °C.

The compound `CCC1CC(=O)N(CCc2ccc(NC(=O)c3cccs3)cc2)N=C1c1ccc(OC)c(OC)c1` (stereo not drawn) had a melting point of 186 °C.

`O=C1NN(c2ccc(Cl)cc2)C(=O)C1=CNc1ccccc1`: the melting point was 288 to 290 °C.

For `CCc1cc2c(s1)-n1nc(C(=O)O)nc1CN=C2c1ccccc1Cl`, the melting point lay in the range of 134 to 136 °C.

For the compound `CC(O)(C(O)CI)C(O)CI` (stereo not drawn), the melting point was 105 to 106 °C.

`COc1ccc(C2CCN(c3c(C)c(C)c4c(c3C)C(c3ccsc3)C(C)(C)O4)CC2)cc1OC` (stereo not drawn) returned a melting point of 111 to 113 °C.

`CC(C)Cc1nc2ccc(C(c3cccc(Cl)c3)n3ccnc3)cc2[nH]c1=O` (stereo not drawn) yielded a melting point of 215 °C.

Compound `CN(C)C=C1C[N+]([O-])=C(c2ccccc2Cl)c2cc(Cl)ccc2C1=O` registered a melting point of 196 to 198 °C.

The compound `Cc1ccc(Cl)cc1N1CN(C(C)C)CN(C)C1=S` displayed a melting point of 83 to 85 °C.

`COc1ccc(-c2cc(C)nn2-c2ccc([N+](=O)[O-])cc2)cc1` came in with a melting point of 155 to 158 °C.

The compound `COc1cc(-c2cnc3[nH]cc(C(=O)C(C)(CO)CO)c3n2)cc(OC)c1OC` returned a melting point of 222 to 223 °C.

In the case of `O=S1(=O)Cc2cc(Cl)c(Cl)cc2C(c2ccc(F)cc2)=NN1`, the melting point lay within 196 to 200 °C.

In the case of `ON=C1CC(c2ccccc2)c2ccccc21` (stereo not drawn), the melting point lay within 123 to 125 °C.

In the case of `O=[N+]([O-])c1ccccc1Nc1ccc(-c2ccc(Nc3ccccc3[N+](=O)[O-])cc2)cc1`, the melting point is 211 to 222 °C.

Turning to `CCC(C)C(NC(=O)OC)C(=O)NN(Cc1ccc(-c2cncs2)cc1)CC(O)C(Cc1ccccc1)NC(=O)C(NC(=O)OC)C(C)(C)C` (stereo not drawn), the melting point was 139 to 141 °C.

As to `Oc1ccc(OCCOc2ccccc2)cc1`, the melting point turned out to be 156 °C.

Turning to `COC(=O)C(Cc1ccc(Cl)cc1Cl)c1ccccc1Cl` (stereo not drawn), the melting point was determined as 67.9 °C.

`COC(=O)Nc1c(Cl)ccc(C)c1F` displayed a melting point of 109 to 112 °C.

For the compound `CCn1cc(C(=O)O)c(=O)c2cc(F)c(N3CCNC(c4ccc(C)o4)C3)cc21` (stereo not drawn), the melting point was 186 to 188 °C.

`Nc1ccccc1NC(=O)c1ccc(CNC(=O)c2[nH]c(-c3ccc(O)cc3)cc2-c2ccccc2)cc1` gave a melting point of 241 to 242 °C.

`CS(=O)c1n[nH]c2ccccc2c1=O` (stereo not drawn) came in with a melting point of 266 to 269 °C.

In turn, `CCCc1nc2c(N)nc3cc(OCc4ccc(F)cc4)ccc3c2s1` registered a melting point of 189 to 192 °C.

`CC(CN(C)C)C(CNC(N)=O)(c1ccccc1)c1ccccc1` (stereo not drawn): the melting point fell in the range of 226 to 228 °C.

`CN(C)S(=O)(=O)c1ccc(Oc2ccc([N+](=O)[O-])cc2)cc1` returned a melting point of 116 to 118 °C.

As for `CNC(=O)c1ccccc1N=C(NC(=O)c1ccccc1)SC`, the melting point fell in the range of 193 to 195 °C.

For the compound `O=C(O)CNC(=O)c1c(O)n(C2CCCC2)c(=O)n(C2CCCCC2)c1=O`, the melting point lay in the range of 222 to 224 °C.

`O=C(CCCN1CCN(c2cc3ccccc3cn2)CC1)c1cccs1` came in with a melting point of 94 to 100 °C.

As to `CS(=O)(=O)c1ccc(-c2cnn(CC(F)(F)F)c(=O)c2Nc2ccccc2)cc1`, the melting point is 154 to 156 °C.

Turning to `CN(C)c1cccc(-c2nc3c(N[C@H]4[C@@H](C(N)=O)[C@@H]5C=C[C@H]4C5)c(Br)cnc3[nH]2)c1`, the melting point lay within 220 to 221 °C.

With `COc1cc(COc2nn(-c3ccccc3)cc2/C=C/c2csc(CO)n2)ccc1OCc1nc(-c2ccc(CC(=O)O)cc2)oc1C`, the melting point was in the range of 204 to 205 °C.

The compound `COc1ccc2[nH]c(S(=O)Cc3ncc(C)c(N4CCCCC4)c3Cl)nc2c1` (stereo not drawn) showed a melting point of 151 to 152 °C.

In turn, `COc1ccc(NC(=O)c2ccccc2NC(=O)c2ccc(C(C)(C)C)cc2)cc1` came in with a melting point of 208 to 210 °C.

`COc1cc(CC(=O)N[C@@H](COC(=O)C(C)(C)C)Cc2ccccc2)ccc1OCCN` returned a melting point of 70 to 74 °C.
